Laboratory results: patent US12637432B2, “Inhibitors of ACK1/TNK2 tyrosine kinase” (H. LEE MOFFITT CANCER CENTER AND RESEARCH INSTITUTE, INC., priority 2020, dated 2026)
Each block holds one compound with its values, some of them ahead of it.

Experiments:
ACK1 [1] = biological target: T1, ACK1 (Homo sapiens, UniProt Q07912); test: Reaction Biology 33P Hotspot assay; format: biochemical
T1 construct: purchased Reaction Biology

UKE1 = test: Cell viability (UKE1); format: cell-based
MDA-MB-231 = test: Cell viability (MDA-MB-231); format: cell-based; conditions: Homo sapiens
AKT Tyr176 = conditions: pancreatic cancer cells; cited from earlier work
AR Tyr267 = conditions: cited from earlier work
[2] = system: castration and radioresistant prostate xenograft tumor; conditions: in vivo; cited from earlier work
[3] = attributed to oxidation of dithiolane ring and NMe2; cited from earlier work
ACK1 [4] = biological target: T1, ACK1; test: ACK1 IC50 (Table 1, assay not specified); format: biochemical

T1 sequence (Q07912 whole entry): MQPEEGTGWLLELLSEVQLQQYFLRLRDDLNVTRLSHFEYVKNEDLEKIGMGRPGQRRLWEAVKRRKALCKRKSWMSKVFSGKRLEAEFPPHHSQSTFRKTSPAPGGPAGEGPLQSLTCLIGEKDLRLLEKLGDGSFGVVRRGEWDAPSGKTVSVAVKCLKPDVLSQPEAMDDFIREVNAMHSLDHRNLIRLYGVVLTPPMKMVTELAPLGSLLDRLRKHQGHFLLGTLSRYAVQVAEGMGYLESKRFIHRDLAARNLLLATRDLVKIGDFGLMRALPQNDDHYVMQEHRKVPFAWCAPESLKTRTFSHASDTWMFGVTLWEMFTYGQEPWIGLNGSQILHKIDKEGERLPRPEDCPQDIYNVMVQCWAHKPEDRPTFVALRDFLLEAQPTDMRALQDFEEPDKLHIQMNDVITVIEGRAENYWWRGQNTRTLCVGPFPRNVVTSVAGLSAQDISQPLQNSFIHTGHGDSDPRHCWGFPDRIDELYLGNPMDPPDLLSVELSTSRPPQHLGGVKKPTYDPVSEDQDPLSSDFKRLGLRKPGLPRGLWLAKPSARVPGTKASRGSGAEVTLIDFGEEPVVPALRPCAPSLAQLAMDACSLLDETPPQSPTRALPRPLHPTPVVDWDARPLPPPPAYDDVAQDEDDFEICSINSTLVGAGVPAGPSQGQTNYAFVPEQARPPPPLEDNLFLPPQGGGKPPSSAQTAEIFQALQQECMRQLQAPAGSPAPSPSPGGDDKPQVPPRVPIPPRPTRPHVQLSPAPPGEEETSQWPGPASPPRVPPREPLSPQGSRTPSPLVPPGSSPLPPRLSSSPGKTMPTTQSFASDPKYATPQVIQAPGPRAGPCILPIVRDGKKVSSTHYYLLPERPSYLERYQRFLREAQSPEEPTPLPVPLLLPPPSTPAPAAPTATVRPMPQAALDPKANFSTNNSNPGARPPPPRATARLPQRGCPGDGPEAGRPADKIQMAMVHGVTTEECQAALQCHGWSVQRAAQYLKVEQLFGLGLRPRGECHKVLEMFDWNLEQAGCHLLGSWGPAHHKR

- IC50 (ACK1 [1]): 29.1 nM
- EC50 (MDA-MB-231): 7.72 µM
SMILES: Cn1cc(-c2ccc(Nc3ncc(Cl)c(NCC4CCOCC4)n3)cc2)cn1 [5-chloro-N^2-(4-(1-methyl-1H-pyrazol-4-yl)phenyl)-N^4-((tetrahydro-2H-pyran-4-yl)methyl)pyrimidine-2,4-diamine]
- EC50 (UKE1): 6.7 µM

SMILES: c1ccc(-c2oc3ncnc(NC[C@@H]4CCCO4)c3c2-c2ccccc2)cc1 [Compound 1b]
- ACK1 dependent AKT Tyr176 phosphorylation (AKT Tyr176): inhibits
- AR Tyr267 phosphorylation (AR Tyr267): inhibits
- castration and radioresistant prostate xenograft tumor growth [2]: inhibits

SMILES: CN(C)CCOc1ccc(-c2oc3ncnc(NCC4SCCS4)c3c2-c2ccccc2)cc1 [Compound 1c]
- pharmacokinetic properties [3]: poor pharmacokinetic properties

- IC50 (ACK1 [4]): 0.0564 µM
SMILES: O=C(COc1cccc2c1C(=O)N(C1CCC(=O)NC1=O)C2=O)NCCCCN1CCN(c2ccc(Nc3ncc(Cl)c(NC[C@H]4CCCO4)n3)cc2)CC1 (stereo partly drawn) [N-(4-(4-(4-((5-chloro-4-((((R)-tetrahydrofuran-2-yl)methyl)amino)pyrimidin-2-yl)amino)phenyl)piperazin-1-yl)butyl)-2-((2-(2,6-dioxopiperidin-3-yl)-1,3-dioxoisoindolin-4-yl)oxy)acetamide]
